Three molecules from ChEMBL document CHEMBL3102755, “Diphenylpropane Derivatives as Agonist of PPAR Nuclear Receptors” (ACS Med Chem Lett, 2013) can be followed below.

Data set [1] deals with T1, Peroxisome proliferator-activated receptor delta (Homo sapiens, UniProt Q03181).
T1 sequence (Q03181 whole entry): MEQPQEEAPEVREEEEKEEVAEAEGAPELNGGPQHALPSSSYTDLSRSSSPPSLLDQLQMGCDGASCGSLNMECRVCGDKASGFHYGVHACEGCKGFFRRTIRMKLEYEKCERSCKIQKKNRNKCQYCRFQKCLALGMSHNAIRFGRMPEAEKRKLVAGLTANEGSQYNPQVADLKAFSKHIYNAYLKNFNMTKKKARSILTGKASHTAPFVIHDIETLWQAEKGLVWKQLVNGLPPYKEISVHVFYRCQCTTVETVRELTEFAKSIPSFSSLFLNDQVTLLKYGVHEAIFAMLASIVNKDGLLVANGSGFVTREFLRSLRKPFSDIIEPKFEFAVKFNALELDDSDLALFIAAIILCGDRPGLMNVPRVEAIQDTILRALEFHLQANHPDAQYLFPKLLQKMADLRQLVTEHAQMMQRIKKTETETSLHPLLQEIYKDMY
Briefly: Agonist activity at human PPARdelta ligand binding domain expressed in monkey COS7 cells cotransfected with Gal4 by luciferase reporter gene assay. Format: cell-based, COS-7.

Data set [2] concerns the target T2, Peroxisome proliferator-activated receptor alpha (Homo sapiens, UniProt Q07869).
T2 sequence (Q07869 whole entry): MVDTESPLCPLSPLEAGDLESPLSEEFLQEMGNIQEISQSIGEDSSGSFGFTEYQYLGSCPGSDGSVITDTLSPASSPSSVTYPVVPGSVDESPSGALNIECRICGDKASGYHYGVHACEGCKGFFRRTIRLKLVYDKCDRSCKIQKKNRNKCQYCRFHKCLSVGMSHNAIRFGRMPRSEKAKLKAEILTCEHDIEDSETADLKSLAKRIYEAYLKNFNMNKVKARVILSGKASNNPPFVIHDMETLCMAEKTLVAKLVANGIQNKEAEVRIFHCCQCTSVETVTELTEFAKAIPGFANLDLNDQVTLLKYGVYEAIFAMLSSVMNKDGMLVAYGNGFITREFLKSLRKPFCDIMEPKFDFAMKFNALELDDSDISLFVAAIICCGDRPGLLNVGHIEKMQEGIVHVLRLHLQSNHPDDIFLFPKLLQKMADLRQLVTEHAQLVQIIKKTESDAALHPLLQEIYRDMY
Nature of the data set: Agonist activity at human PPARalpha ligand binding domain expressed in monkey COS7 cells cotransfected with Gal4 by luciferase reporter gene assay. Format: cell-based, COS-7. On the technique in general: A reporter such as luciferase makes a cellular process visible.

Data set [3] deals with T3, Peroxisome proliferator-activated receptor gamma (Homo sapiens, UniProt P37231).
T3 sequence (P37231 whole entry): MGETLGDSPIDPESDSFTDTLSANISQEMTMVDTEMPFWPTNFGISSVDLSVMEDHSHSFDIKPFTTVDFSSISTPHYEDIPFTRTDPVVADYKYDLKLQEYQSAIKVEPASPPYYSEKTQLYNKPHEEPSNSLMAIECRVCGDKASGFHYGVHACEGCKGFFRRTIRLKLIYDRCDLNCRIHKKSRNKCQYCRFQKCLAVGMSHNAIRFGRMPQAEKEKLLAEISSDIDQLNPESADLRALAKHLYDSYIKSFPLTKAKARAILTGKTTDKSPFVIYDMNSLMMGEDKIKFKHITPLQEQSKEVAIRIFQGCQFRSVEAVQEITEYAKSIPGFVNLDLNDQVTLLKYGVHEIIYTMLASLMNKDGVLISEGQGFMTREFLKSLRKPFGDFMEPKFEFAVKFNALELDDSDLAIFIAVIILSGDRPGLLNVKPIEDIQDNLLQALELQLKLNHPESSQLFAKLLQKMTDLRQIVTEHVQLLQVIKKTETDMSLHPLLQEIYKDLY
Nature of the data set: Agonist activity at human PPARgamma ligand binding domain expressed in monkey COS7 cells cotransfected with Gal4 by luciferase reporter gene assay. Format: cell-based, COS-7.

Data set [4] concerns Mus musculus. Nature of the data set: Antialzheimer activity in APPPS1 transgenic C57BL/6J mouse model assessed as decrease in beta-amyloid accumulation in brain at 1 to 10 mg/kg. Format: functional, organism-based.
The subject of data set [5] is Mus musculus. Briefly: Cognitive enhancing effect in APPPS1 transgenic C57BL/6J mouse model at 1 to 10 mg/kg for 60 days by Morris-Water maze assay. Type of data set: functional, organism-based.
The nature of data set [6]: Ratio of AUC (0 to 24 hrs) in brain to plasma in mouse at 2 mg/kg, iv and 10 mg/kg, po. Format: ADME, organism-based. As to conditions: read-out: BPR.

Broadly, the EC50 is the concentration that produces a half-maximal response.

Structures are written as SMILES. Activity calls are given as the source filed them. The calls are words filed in the database; no cut-off is given here.

As for `Cc1cc(C2CC2C(OC(=O)c2ccccc2)c2ccc(OC(F)(F)F)cc2)cc(C)c1OC(C)(C)C(=O)O` (single isomer, unassigned; diastereomer 2), the concentration for a half-maximal effect (EC50) amounted to 0.122 µM in data set [1], 0.1 µM in data set [2] and 0.023 µM in data set [3].
Turning to `COC(c1ccc(OC(F)(F)F)cc1)C1CC1c1cc(C)c(OC(C)(C)C(=O)O)c(C)c1` (single isomer, unassigned; enantiomer 1), the result in the data set on Mus musculus [4] and in the data set on Mus musculus [5] was Active. In data set [3] (cos-7), this molecule gave an EC50 of 0.016 µM. The Kp in data set [6] stood at 0.37.
Take `Cc1cc(C2CC2C(OC(=O)c2ccccc2)c2ccc(OC(F)(F)F)cc2)cc(C)c1OC(C)(C)C(=O)O` (single isomer, unassigned; diastereomer 1): the EC50 came out at 0.079 µM in data set [1], 0.021 µM in data set [2] and 0.116 µM in data set [3].
